Laboratory results taken from the CheMixHub viscosity set.

Assay: xn = mol fraction of the nth substance listed

COCCOC + O
Details	viscosity [mPa·s]
298 K, 101 kPa, x2 = 0.222	0.5134
298 K, 101 kPa, x2 = 0.353	0.6057
298 K, 101 kPa, x2 = 0.3777	0.6324
298 K, 101 kPa, x2 = 0.4685	0.7626
298 K, 101 kPa, x2 = 0.5569	0.943
298 K, 101 kPa, x2 = 0.711	1.481
298 K, 101.3 kPa, x1 = 0.019	1.166
298 K, 101.3 kPa, x1 = 0.0608	1.748
298 K, 101.3 kPa, x1 = 0.1011	2.092
298 K, 101.3 kPa, x1 = 0.1521	2.104
298 K, 101.3 kPa, x1 = 0.1999	1.935
298 K, 101.3 kPa, x1 = 0.2992	1.432
298 K, 101.3 kPa, x1 = 0.4048	1.074
298 K, 101.3 kPa, x1 = 0.597	0.684
298 K, 101.3 kPa, x1 = 0.801	0.506
298.15 K, 101.33 kPa, x1 = 0.007	1.018
298.15 K, 101.33 kPa, x1 = 0.0184	1.189
298.15 K, 101.33 kPa, x1 = 0.0306	1.376
298.15 K, 101.33 kPa, x1 = 0.0542	1.712
298.15 K, 101.33 kPa, x1 = 0.0775	1.968
298.15 K, 101.33 kPa, x1 = 0.1063	2.146
298.15 K, 101.33 kPa, x1 = 0.1301	2.252
298.15 K, 101.33 kPa, x1 = 0.1654	2.164
298.15 K, 101.33 kPa, x1 = 0.2002	2.001
298.15 K, 101.33 kPa, x1 = 0.2402	1.782
298.15 K, 101.33 kPa, x1 = 0.2886	1.55
298.15 K, 101.33 kPa, x1 = 0.3482	1.256
298.15 K, 101.33 kPa, x1 = 0.3836	1.128
298.15 K, 101.33 kPa, x1 = 0.4226	1.005
298.15 K, 101.33 kPa, x1 = 0.4689	0.886
298.15 K, 101.33 kPa, x1 = 0.5203	0.78
298.15 K, 101.33 kPa, x1 = 0.5617	0.707
298.15 K, 101.33 kPa, x1 = 0.613	0.638
298.15 K, 101.33 kPa, x1 = 0.6418	0.605
298.15 K, 101.33 kPa, x1 = 0.6575	0.586
298.15 K, 101.33 kPa, x1 = 0.7264	0.536
298.15 K, 101.33 kPa, x1 = 0.8227	0.491
298.15 K, 101.33 kPa, x1 = 0.8646	0.471
298.15 K, 101.33 kPa, x1 = 0.9633	0.433
303.15 K, 101 kPa, x1 = 0.0471	1.344
303.15 K, 101 kPa, x1 = 0.0951	1.725
303.15 K, 101 kPa, x1 = 0.1421	1.837
303.15 K, 101 kPa, x1 = 0.1877	1.726
303.15 K, 101 kPa, x1 = 0.2322	1.562
303.15 K, 101 kPa, x1 = 0.277	1.373
303.15 K, 101 kPa, x1 = 0.3598	1.093
303.15 K, 101 kPa, x1 = 0.4455	0.8759
303.15 K, 101 kPa, x1 = 0.5389	0.7129
303.15 K, 101 kPa, x1 = 0.6952	0.5462
303.15 K, 101 kPa, x1 = 0.803	0.4759
303.15 K, 101 kPa, x1 = 0.9001	0.4317
308.15 K, 101 kPa, x1 = 0.0471	1.174
308.15 K, 101 kPa, x1 = 0.0951	1.487
308.15 K, 101 kPa, x1 = 0.1421	1.583
308.15 K, 101 kPa, x1 = 0.1877	1.493
308.15 K, 101 kPa, x1 = 0.2322	1.375
308.15 K, 101 kPa, x1 = 0.277	1.214
308.15 K, 101 kPa, x1 = 0.3598	0.98
308.15 K, 101 kPa, x1 = 0.4455	0.7944
308.15 K, 101 kPa, x1 = 0.5389	0.6553
308.15 K, 101 kPa, x1 = 0.6952	0.5103
308.15 K, 101 kPa, x1 = 0.803	0.448
308.15 K, 101 kPa, x1 = 0.9001	0.4079
313.15 K, 101 kPa, x1 = 0.0471	1.035
313.15 K, 101 kPa, x1 = 0.0951	1.302
313.15 K, 101 kPa, x1 = 0.1421	1.377
313.15 K, 101 kPa, x1 = 0.1877	1.308
313.15 K, 101 kPa, x1 = 0.2322	1.211
313.15 K, 101 kPa, x1 = 0.277	1.081
313.15 K, 101 kPa, x1 = 0.3598	0.886
313.15 K, 101 kPa, x1 = 0.4455	0.7267
313.15 K, 101 kPa, x1 = 0.5389	0.6061
313.15 K, 101 kPa, x1 = 0.6952	0.4784
313.15 K, 101 kPa, x1 = 0.803	0.4217
313.15 K, 101 kPa, x1 = 0.9001	0.3865
318.15 K, 101 kPa, x1 = 0.0471	0.9228
318.15 K, 101 kPa, x1 = 0.0951	1.143
318.15 K, 101 kPa, x1 = 0.1421	1.208
318.15 K, 101 kPa, x1 = 0.1877	1.157
318.15 K, 101 kPa, x1 = 0.2322	1.07
318.15 K, 101 kPa, x1 = 0.277	0.9692
318.15 K, 101 kPa, x1 = 0.3598	0.8048
318.15 K, 101 kPa, x1 = 0.4455	0.6672
318.15 K, 101 kPa, x1 = 0.5389	0.5616
318.15 K, 101 kPa, x1 = 0.6952	0.4497
318.15 K, 101 kPa, x1 = 0.803	0.3986
318.15 K, 101 kPa, x1 = 0.9001	0.367
323.15 K, 101 kPa, x1 = 0.0471	0.8291
323.15 K, 101 kPa, x1 = 0.0951	1.013
323.15 K, 101 kPa, x1 = 0.1421	1.07
323.15 K, 101 kPa, x1 = 0.1877	1.034
323.15 K, 101 kPa, x1 = 0.2322	0.9565
323.15 K, 101 kPa, x1 = 0.277	0.8719
323.15 K, 101 kPa, x1 = 0.3598	0.7336
323.15 K, 101 kPa, x1 = 0.4455	0.6155
323.15 K, 101 kPa, x1 = 0.5389	0.5232
323.15 K, 101 kPa, x1 = 0.6952	0.4226
323.15 K, 101 kPa, x1 = 0.803	0.3769
323.15 K, 101 kPa, x1 = 0.9001	0.3479
